Measured values as given in the supplement of paper PMC10307832.

What was measured:
Assay in all cases: relative viability (nuclei count vs DMSO), 5 days (fraction); higher = more cells survive
NCI-H596 = tested on: NCI-H596
How it was run: (§1)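 After 5 days of treatment, lung cancer cells in 1536-well plates were fixed and stained in a single step (final 0.05% Triton X-100, 1% formaldehyde, 1 ug/ml Hoechst) and their nuclei counted on 4× images. Treatment had been applied by pin tool the day after seeding as one drug alone or as a fixed anchor-drug dose with five library-drug doses (not always all listed) in √10 steps. Relative viability is the nuclei count of treated wells divided by that of vehicle wells, and values are medians of duplicate plates.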

HCC-78 = tested on: HCC-78
How it was run: as §1

NCI-H1944 = tested on: NCI-H1944
How it was run: as §1

NCI-H1793 = tested on: NCI-H1793
How it was run: as §1

NCI-H3122 = tested on: NCI-H3122
How it was run: as §1

NCI-H2126 = tested on: NCI-H2126
How it was run: as §1

LCLC-97TM1 = tested on: LCLC-97TM1
How it was run: as §1

HOP-62 = tested on: HOP-62
How it was run: as §1

COR-L23 = tested on: COR-L23
How it was run: as §1

NCI-H1395 = tested on: NCI-H1395
How it was run: as §1

NCI-H661 = tested on: NCI-H661
How it was run: as §1

NCI-H1666 = tested on: NCI-H1666
How it was run: as §1

PC-14 = tested on: PC-14
How it was run: as §1

LXF-289 = tested on: LXF-289
How it was run: as §1

NCI-H2085 = tested on: NCI-H2085
How it was run: as §1

NCI-H1650 = tested on: NCI-H1650
How it was run: as §1

HARA = tested on: HARA
How it was run: as §1

EPLC-272H = tested on: EPLC-272H
How it was run: as §1

NCI-H1437 = tested on: NCI-H1437
How it was run: as §1

H3255 = tested on: H3255
How it was run: as §1

NCI-H2087 = tested on: NCI-H2087
How it was run: as §1

Nc1cccc2c1CN(C1CCC(=O)NC1=O)C2=O (configuration not stated) [Lenalidomide] + CS(=O)(=O)CCNCc1ccc(-c2ccc3ncnc(Nc4ccc(OCc5cccc(F)c5)c(Cl)c4)c3c2)o1 [Lapatinib] (partner 2 µM)
relative viability (NCI-H596; first compound 0.253 µM): 1.14
relative viability (NCI-H596; first compound 0.8 µM): 0.919
relative viability (NCI-H596; first compound 2.53 µM): 1.1
relative viability (NCI-H596; first compound 8 µM): 0.995
relative viability (HCC-78; first compound 0.253 µM): 0.811
relative viability (HCC-78; first compound 0.8 µM): 0.367
relative viability (HCC-78; first compound 2.53 µM): 0.245
relative viability (HCC-78; first compound 8 µM): 0.271
relative viability (NCI-H1944; first compound 0.253 µM): 0.932
relative viability (NCI-H1944; first compound 0.8 µM): 0.59
relative viability (NCI-H1944; first compound 2.53 µM): 0.754
relative viability (NCI-H1944; first compound 8 µM): 0.602
relative viability (NCI-H1793; first compound 0.253 µM): 0.675
relative viability (NCI-H1793; first compound 0.8 µM): 0.483
relative viability (NCI-H1793; first compound 2.53 µM): 1.07
relative viability (NCI-H1793; first compound 8 µM): 0.454
relative viability (NCI-H3122; first compound 0.253 µM): 1.04
relative viability (NCI-H3122; first compound 0.8 µM): 1.03
relative viability (NCI-H3122; first compound 2.53 µM): 0.974
relative viability (NCI-H3122; first compound 8 µM): 1.13
relative viability (NCI-H2126; first compound 0.253 µM): 0.743
relative viability (NCI-H2126; first compound 0.8 µM): 0.537
relative viability (NCI-H2126; first compound 2.53 µM): 0.733
relative viability (NCI-H2126; first compound 8 µM): 0.584
relative viability (LCLC-97TM1; first compound 0.8 µM): 0.602
relative viability (LCLC-97TM1; first compound 2.53 µM): 1.09
relative viability (LCLC-97TM1; first compound 8 µM): 0.623
relative viability (HOP-62; first compound 0.253 µM): 1
relative viability (HOP-62; first compound 0.8 µM): 0.578
relative viability (HOP-62; first compound 2.53 µM): 1.26
relative viability (HOP-62; first compound 8 µM): 0.924
relative viability (COR-L23; first compound 0.253 µM): 1.05
relative viability (COR-L23; first compound 0.8 µM): 0.935
relative viability (COR-L23; first compound 2.53 µM): 1.29
relative viability (COR-L23; first compound 8 µM): 1.2
relative viability (NCI-H1395; first compound 0.253 µM): 1.1
relative viability (NCI-H1395; first compound 2.53 µM): 0.948
relative viability (NCI-H1395; first compound 8 µM): 0.845
relative viability (NCI-H661; first compound 0.253 µM): 0.428
relative viability (NCI-H661; first compound 0.8 µM): 0.501
relative viability (NCI-H661; first compound 2.53 µM): 0.479
relative viability (NCI-H661; first compound 8 µM): 0.495
relative viability (NCI-H1666; first compound 0.253 µM): 0.788
relative viability (NCI-H1666; first compound 0.8 µM): 0.295
relative viability (NCI-H1666; first compound 2.53 µM): 0.847
relative viability (NCI-H1666; first compound 8 µM): 0.513
relative viability (PC-14; first compound 0.253 µM): 0.294
relative viability (PC-14; first compound 0.8 µM): 0.32
relative viability (PC-14; first compound 2.53 µM): 0.4
relative viability (PC-14; first compound 8 µM): 0.302
relative viability (LXF-289; first compound 0.253 µM): 0.928
relative viability (LXF-289; first compound 0.8 µM): 0.882
relative viability (LXF-289; first compound 2.53 µM): 0.991
relative viability (LXF-289; first compound 8 µM): 0.957
relative viability (NCI-H2085; first compound 0.253 µM): 0.731
relative viability (NCI-H2085; first compound 0.8 µM): 0.538
relative viability (NCI-H2085; first compound 2.53 µM): 0.912
relative viability (NCI-H2085; first compound 8 µM): 0.477
relative viability (NCI-H1650; first compound 0.253 µM): 0.75
relative viability (NCI-H1650; first compound 0.8 µM): 0.485
relative viability (NCI-H1650; first compound 2.53 µM): 0.835
relative viability (NCI-H1650; first compound 8 µM): 0.731
relative viability (HARA; first compound 0.253 µM): 0.775
relative viability (HARA; first compound 0.8 µM): 0.653
relative viability (HARA; first compound 2.53 µM): 0.8
relative viability (HARA; first compound 8 µM): 0.571
relative viability (EPLC-272H; first compound 0.253 µM): 0.97
relative viability (EPLC-272H; first compound 2.53 µM): 0.976
relative viability (EPLC-272H; first compound 8 µM): 0.648
relative viability (NCI-H1437; first compound 0.253 µM): 0.692
relative viability (NCI-H1437; first compound 0.8 µM): 0.758
relative viability (NCI-H1437; first compound 2.53 µM): 1.11
relative viability (NCI-H1437; first compound 8 µM): 0.914
relative viability (H3255; first compound 0.253 µM): 0.237
relative viability (H3255; first compound 0.8 µM): 0.191
relative viability (H3255; first compound 2.53 µM): 0.317
relative viability (H3255; first compound 8 µM): 0.227
relative viability (NCI-H2087; first compound 0.253 µM): 1.01
relative viability (NCI-H2087; first compound 0.8 µM): 0.78
relative viability (NCI-H2087; first compound 2.53 µM): 1.07
relative viability (NCI-H2087; first compound 8 µM): 1.09

CN1CCN(CCOc2cc(OC3CCOCC3)c3c(Nc4c(Cl)ccc5c4OCO5)ncnc3c2)CC1 [Saracatinib] + CS(=O)(=O)CCNCc1ccc(-c2ccc3ncnc(Nc4ccc(OCc5cccc(F)c5)c(Cl)c4)c3c2)o1 [Lapatinib] (partner 2 µM)
relative viability (NCI-H596; first compound 0.02 µM): 1.02
relative viability (NCI-H596; first compound 0.2 µM): 1.03
relative viability (NCI-H596; first compound 0.6325 µM): 0.994
relative viability (NCI-H596; first compound 2 µM): 0.796
relative viability (HCC-78; first compound 0.02 µM): 0.822
relative viability (HCC-78; first compound 0.2 µM): 0.481
relative viability (HCC-78; first compound 0.6325 µM): 0.686
relative viability (HCC-78; first compound 2 µM): 0.778
relative viability (NCI-H1944; first compound 0.02 µM): 0.808
relative viability (NCI-H1944; first compound 0.6325 µM): 0.872
relative viability (NCI-H1944; first compound 2 µM): 0.459
relative viability (NCI-H1793; first compound 0.02 µM): 0.894
relative viability (NCI-H1793; first compound 0.2 µM): 0.587
relative viability (NCI-H1793; first compound 0.6325 µM): 0.974
relative viability (NCI-H1793; first compound 2 µM): 0.76
relative viability (NCI-H3122; first compound 0.02 µM): 1.03
relative viability (NCI-H3122; first compound 0.6325 µM): 0.894
relative viability (NCI-H3122; first compound 2 µM): 0.781
relative viability (NCI-H2126; first compound 0.02 µM): 0.813
relative viability (NCI-H2126; first compound 0.2 µM): 0.686
relative viability (NCI-H2126; first compound 0.6325 µM): 0.732
relative viability (NCI-H2126; first compound 2 µM): 0.626
relative viability (LCLC-97TM1; first compound 0.02 µM): 1.34
relative viability (LCLC-97TM1; first compound 0.2 µM): 0.771
relative viability (LCLC-97TM1; first compound 0.6325 µM): 0.861
relative viability (LCLC-97TM1; first compound 2 µM): 0.401
relative viability (HOP-62; first compound 0.02 µM): 1.21
relative viability (HOP-62; first compound 0.2 µM): 0.816
relative viability (HOP-62; first compound 0.6325 µM): 1.05
relative viability (HOP-62; first compound 2 µM): 1.21
relative viability (COR-L23; first compound 0.02 µM): 0.947
relative viability (COR-L23; first compound 0.2 µM): 0.571
relative viability (COR-L23; first compound 0.6325 µM): 1.1
relative viability (COR-L23; first compound 2 µM): 0.897
relative viability (NCI-H1395; first compound 0.02 µM): 0.911
relative viability (NCI-H1395; first compound 0.2 µM): 0.921
relative viability (NCI-H1395; first compound 0.6325 µM): 0.953
relative viability (NCI-H1395; first compound 2 µM): 0.733
relative viability (NCI-H661; first compound 0.02 µM): 0.456
relative viability (NCI-H661; first compound 0.2 µM): 0.552
relative viability (NCI-H661; first compound 0.6325 µM): 0.633
relative viability (NCI-H661; first compound 2 µM): 0.37
relative viability (NCI-H1666; first compound 0.02 µM): 0.686
relative viability (NCI-H1666; first compound 0.2 µM): 0.629
relative viability (NCI-H1666; first compound 0.6325 µM): 0.777
relative viability (NCI-H1666; first compound 2 µM): 0.872
relative viability (PC-14; first compound 0.02 µM): 0.334
relative viability (PC-14; first compound 0.2 µM): 0.26
relative viability (PC-14; first compound 0.6325 µM): 0.305
relative viability (PC-14; first compound 2 µM): 0.185
relative viability (LXF-289; first compound 0.02 µM): 0.95
relative viability (LXF-289; first compound 0.2 µM): 0.895
relative viability (LXF-289; first compound 0.6325 µM): 0.955
relative viability (LXF-289; first compound 2 µM): 0.901
relative viability (NCI-H2085; first compound 0.02 µM): 0.802
relative viability (NCI-H2085; first compound 0.2 µM): 0.615
relative viability (NCI-H2085; first compound 0.6325 µM): 0.811
relative viability (NCI-H2085; first compound 2 µM): 0.725
relative viability (NCI-H1650; first compound 0.02 µM): 0.779
relative viability (NCI-H1650; first compound 0.2 µM): 0.803
relative viability (NCI-H1650; first compound 0.6325 µM): 0.573
relative viability (NCI-H1650; first compound 2 µM): 0.47
relative viability (HARA; first compound 0.02 µM): 0.808
relative viability (HARA; first compound 0.6325 µM): 1.1
relative viability (HARA; first compound 2 µM): 0.442
relative viability (EPLC-272H; first compound 0.02 µM): 1.01
relative viability (EPLC-272H; first compound 0.2 µM): 0.806
relative viability (EPLC-272H; first compound 0.6325 µM): 1.05
relative viability (EPLC-272H; first compound 2 µM): 0.893
relative viability (NCI-H1437; first compound 0.02 µM): 0.884
relative viability (NCI-H1437; first compound 0.2 µM): 0.841
relative viability (NCI-H1437; first compound 0.6325 µM): 0.783
relative viability (NCI-H1437; first compound 2 µM): 0.757
relative viability (H3255; first compound 0.02 µM): 0.27
relative viability (H3255; first compound 0.2 µM): 0.241
relative viability (H3255; first compound 0.6325 µM): 0.271
relative viability (H3255; first compound 2 µM): 0.239
relative viability (NCI-H2087; first compound 0.02 µM): 1.1
relative viability (NCI-H2087; first compound 0.2 µM): 1.03
relative viability (NCI-H2087; first compound 0.6325 µM): 1.25
relative viability (NCI-H2087; first compound 2 µM): 0.981
